By IC50 is commonly meant the concentration that gives 50% inhibition.

This note sets out measurements from PubChem BioAssay AID504322 (Emory University Molecular Libraries Screening Center, 2011).

Structures are written as SMILES. The source made the active and inactive calls. How the calls were made is not given here. A value given as a limit tells only on which side of the number the result lay.

The subject of the experiment is CHOP reporter cell assay, percent of control. Put plainly: CHOP reporter inhibitor potency, dose response, cell-based (AID 504322).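 Further: CHO cells carrying a CHOP reporter stimulated with tunicamycin to induce ER stress; potency is for inhibition of the stress-induced reporter signal.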
Regarding `CCN(CCO)c1ncnc2c1sc1nc(C(C)C)c3c(c12)CC(C)(C)OC3`, the IC50 is 9.63 µM (inactive).

`Cc1cc(/C=N/n2cnnc2)c(C)n1-c1ccc(OCc2ccc(F)cc2)cc1`: the IC50 is 0.67 µM (inactive).

As for `CCCCCCN1C=CC(=C2C(=O)c3ccccc3C2=O)C=C1`, the IC50 is 6.36 µM (inactive).

As for `COc1ccc(C(=O)/C=C/C(=O)N(CC(=O)NC2CCCCC2)Cc2ccc(F)cc2)c(O)c1`, the IC50 was 2.12 µM.

`O=C(Nc1cccc(-c2nc3ncccc3o2)c1)c1sc2ccccc2c1Cl`: the half-maximal inhibitory concentration (IC50) was 2.47 µM.

On to `O=C(Nc1ccccc1Cl)/C(Cl)=C(\Cl)S(=O)c1ccccc1` (stereo not given), for which the IC50 is 2.4 µM.

With `C=C1C(=O)O[C@@H]2C[C@@H](C)[C@@H]3C=CC(=O)[C@@]3(C)[C@@H](O)[C@H]12`, the IC50 is 2.61 µM.

Turning to `CC[n+]1c(/C=C2\Sc3ccccc3N2C)ccc2cccc(C)c21`, the IC50 was > 10 µM (inactive).

In the case of `Nc1nnnn1/N=C/C(Br)=C/c1ccccc1`, the IC50 was 9.72 µM (inactive).

On to `Nc1cccc(Nc2nc(OC(C(F)(F)F)C(F)(F)F)nc(OC(C(F)(F)F)C(F)(F)F)n2)c1`, for which the IC50 is 3.09 µM (inactive).

In the case of `CCOC(=O)c1ccc(NC(=O)c2nc[nH]c2C(=O)N[C@@H](C)C(=O)OC(C)(C)C)cc1`, the IC50 was 5.92 µM (inactive).

Consider `Oc1[nH]c2ccccc2c1N=NC(=S)NCCc1ccccc1`, for which the IC50 was 9.82 µM (inactive).

`O=S(=O)(NCC(Nc1ccc(Cl)cc1)c1ccccc1)c1ccc(Cl)cc1` (stereo not given): the IC50 is 6.69 µM (inactive).

With `CC1CCCC(NCC(O)COC(c2ccc(F)cc2)c2ccc(F)cc2)C1C` (stereo not given), the IC50 is 9.43 µM (inactive).

Consider `CN(C)c1ccc(C(CNS(=O)(=O)c2ccc(F)c(F)c2)c2c[nH]c3ccccc23)cc1` (stereo not given), for which the IC50 is 6.39 µM (inactive).

Consider `Cn1c(=O)cc(SCC(=O)NCCC2=CCCCC2)c2ccc(Cl)cc21`, for which the IC50 is 5.34 µM (inactive).

As to `CC(C)=CCc1c(O)c(CC=C(C)C)c2c(c1O)C(=O)CC(c1ccc(O)cc1)O2` (stereo not given), the IC50 is 9.61 µM (inactive).

In the case of `COc1ccc(-c2cnc(OC(C)(C)C)nc2OC(C)(C)C)cc1OC`, the IC50 was 4.6 µM (inactive).

Turning to `Cc1nc(SCC(=O)Nc2cc(C)on2)c2c3c(sc2n1)CCCC3`, the IC50 was > 10 µM (inactive).

With `CCCCCC1CC(CC(=O)Nc2ccc([N+](=O)[O-])cc2)C(=O)O1` (stereo not given), the IC50 is 9.17 µM (inactive).

Consider `CCOc1cc(/C=N/NC(=O)Cc2ccc(C(F)(F)F)cc2[N+](=O)[O-])c(Br)cc1OC`, for which the 50% inhibitory concentration (IC50) is 4.6 µM.

With `CCSc1nc2ccccc2n1C(=O)/C=C\c1ccc(OC)c(OC)c1`, the half-inhibitory concentration (IC50) was 4.06 µM.

Take `COC(=O)/C(=C1/Oc2cc(C)oc(=O)c2S1)C(F)(F)F`: the IC50 was 4.93 µM.

Turning to `Cc1ccc(C)c(OCc2ccc(C(=O)N3N=C(C(F)F)CC3(O)C(F)F)o2)c1` (stereo not given), the IC50 was 2.89 µM.

For `O=C(CN1C(=O)c2ccccc2S1(=O)=O)c1ccc2c(c1)OCCCO2`, the IC50 was 0.34 µM (inactive).

`Cc1cc(/C=N/n2cnnc2)c(C)n1-c1ccc(OCc2ccccc2F)cc1`: the IC50 was 4.88 µM.

In the case of `O=C(O)c1cccc(COc2ccccc2Cl)c1`, the IC50 is 6.05 µM (inactive).

Consider `O=C1C=CC(=O)N1N(c1ccccc1)c1ccccc1`, for which the IC50 was > 10 µM (inactive).

Consider `CN1CCN(CC(=O)N2CCn3c4c(c5cc(C6CCCCC6)ccc53)CCCC42)CC1` (stereo not given), for which the IC50 is 9.6 µM (inactive).

As to `Cc1cc(C(=O)N/N=C/c2ccc(-c3cccc(Cl)c3Cl)o2)n[nH]1`, the IC50 was 5.27 µM (inactive).

For `CC1CCN(S(=O)(=O)c2ccc3c(c2)C(=NO)c2cc(S(=O)(=O)N4CCC(C)CC4)ccc2-3)CC1`, the half-inhibitory concentration (IC50) was 0.32 µM.

On to `C/C(N)=C(/C#N)C(=O)COC(=O)C1CCC(C(C)(C)C)CC1` (stereo not given), for which the concentration for half-maximal inhibition (IC50) was 2.41 µM.

Regarding `CCOc1ccc(C(=O)C(CCC(CN(C)C)C(=O)c2ccc(OCC)cc2)CN(C)C)cc1` (stereo not given), the IC50 is 9.69 µM (inactive).

Turning to `COc1ccc(NC(=O)/C(Cl)=C(/Cl)S(=O)Cc2ccc(Cl)cc2)cn1` (stereo not given), the IC50 was 1.99 µM.

For `COc1cccc(N2CCN(c3ncnc4c3[nH]c3ccccc34)CC2C)c1` (stereo not given), the IC50 was 4.13 µM.

Consider `Cc1ccc2c(C)nc(Nc3nc(CSc4nc5ccccc5[nH]4)cc(=O)[nH]3)nc2c1`, for which the IC50 is 3.8 µM (inactive).

Consider `O=C(N/N=C/c1cccc(F)c1)c1c(O)c2ccccc2[nH]c1=O`, for which the IC50 is 6.48 µM (inactive).

As to `Cc1ccc(-c2nc3cc(NS(=O)(=O)c4ccc(C)cc4)ccc3o2)cc1`, the IC50 was 5.63 µM (inactive).

Turning to `COc1ccc(OCc2n(CC(=O)OC3CC(C)CCC3C(C)C)c3ccccc3[n+]2C)cc1` (stereo not given), the IC50 is > 10 µM (inactive).

`CC(C)(C)c1ccc(S(=O)(=O)NCC(=O)Nc2sc3c(c2C(N)=O)CCCC3)cc1`: the IC50 was 9.83 µM (inactive).

Take `C#CC(=O)N(c1cc(OC)ccc1OC)C(C(=O)NC1CCCC1)c1cccs1` (stereo not given): the IC50 is > 10 µM (inactive).

Take `CCN1/C(=C/C(C)=C/c2sc3ccccc3[n+]2CC)Sc2ccccc21`: the IC50 was under 0.16 µM.

For the molecule `CC(C)=CCCC1(C)C=Cc2c(c(C)cc3c2[nH]c2cc(O)ccc23)O1` (stereo not given), the IC50 is 6.04 µM (inactive).

Turning to `O=C1CC(c2cccc(Cl)c2)CC(O)=C1C=Nc1cccc(Cl)c1` (stereo not given), the IC50 was 9.72 µM (inactive).

For the molecule `Cc1ccc(/C=C2\SC(=S)N(CCCC(=O)Nc3ccccn3)C2=O)cc1`, the IC50 was 0.42 µM.

Turning to `O/N=C(\c1ccc(Cl)cc1Cl)c1ncc(C(F)(F)F)cc1Cl`, the IC50 was 2.2 µM (inactive).

Consider `O=C(NCc1nc(-c2ccc(C(F)(F)F)cc2)no1)Nc1cc(Cl)cc(Cl)c1`, for which the IC50 was 4.78 µM.

As for `COc1ccc([C@H]2Oc3cc(O)cc(O)c3C(=O)C2[C@@H]2C(=O)c3c(O)cc(O)cc3O[C@@H]2c2ccc(OC)cc2)cc1` (stereo not given in full), the IC50 is > 10 µM (inactive).

Turning to `CN(CCCC[C@H](CNCc1ccc(-c2ccccc2)cc1)N1C[C@H](c2ccccc2)N(CCc2ccc(Cl)c(Cl)c2)C(=O)C1=O)Cc1ccc(-c2ccccc2)cc1`, the IC50 was 9.37 µM (inactive).

Take `O=C1c2ccccc2C(=O)C1c1nccc2ccccc12`: the IC50 is 5.41 µM (inactive).

Regarding `COc1ccccc1-c1cc(C(F)(F)F)nc(S(=O)(=O)CCCC(=O)NC(C)C)n1`, the IC50 was 9.35 µM (inactive).

As for `CCCCCCNC(=O)CC(c1ccccc1)c1cc(Br)ccc1O` (stereo not given), the IC50 is 3.52 µM.

Take `COc1oc(-c2ccc(Cl)cc2)nc1C(F)(F)F`: the IC50 is 1.29 µM.

`CCOC(=O)C1=C(O)/C(=C/c2ccc(CNC(=O)C(=O)Nc3ccc(C)cc3)o2)N=C1C`: the IC50 was > 10 µM (inactive).

As for `CN1/C(=C/C(=O)c2nc(S(C)(=O)=O)ncc2Cl)C(C)(C)c2ccccc21`, the 50% inhibitory concentration (IC50) was under 0.16 µM.

`O=C(N/N=C/c1ccc(F)cc1)c1c(O)c2ccccc2[nH]c1=O`: the IC50 is > 10 µM (inactive).

As for `Cc1cccc(NCC(=O)N/N=C\c2cccc(Oc3ccccc3)c2)c1`, the IC50 is 8.02 µM (inactive).

As to `COc1ccc(C(=O)/C=C/C(=O)N(CC(=O)NC2CCCCC2)Cc2cccs2)c(O)c1`, the IC50 is 9.94 µM (inactive).

As to `CCCCCCCCCCCCCCCC[n+]1ccc(/C=N/O)cc1`, the half-maximal inhibitory concentration (IC50) was 3.1 µM.

For the molecule `CCOc1ccc(-n2c(SCC(=O)Nc3ccc(Br)cc3)nc3n[nH]c(C)c3c2=N)cc1`, the IC50 is 8.02 µM (inactive).
